Experimental data published in patent US10202412B2, “β-D-2′-deoxy-2′-substituted-4′-substituted-2-substituted-N6-substituted-6-aminopurinenucleotides for the treatment of paramyxovirus and orthomyxovirus infections” (Atea Pharmaceuticals, Inc., priority 2016, dated 2019).

Columns and labels:
[1] = test system: Differentiated normal human bronchial epithelial (dNHBE) cells; assay: dNHBE assay: toxicity evaluated microscopically; type: cell-based; set-up: unit not given here
Method: (§1) Differentiated normal human bronchial epithelial (dNHBE) cells were grown on 6 mm mesh disks in transwell inserts to approximately 1.2×10^6 cells/disk and disks were transferred to individual wells of a 6-well plate. 1 mL of proprietary culture medium was added to the basolateral side of the cells and the apical side was exposed to a humidified 95% air/5% CO2 environment. Cells were cultured at 37° C. for one day and then the mucin layer was removed from the apical side of the cells by repeated (3×) washing with 500 μL 30 mM HEPES buffered saline solution and culture medium on the basal side was replenished.
(§2) Various concentrations of test compounds in medium were applied in duplicate to the apical (140 μL) and basal sides (1 mL) for a 1 hour pre-treatment, followed by addition of 140 μL of virus inoculum to each cell insert on the apical side. The viral inoculum and treatments were removed after 2 hours. Control cells were treated with placebo (culture medium only). Following infection, the apical medium was removed and the basal side was replaced with fresh compound in medium. The cells were maintained at the air-liquid interface, and cell culture medium on the basal side was replaced daily with fresh medium containing test compound. After 4 days, the liquid was removed from the basal side and discarded and virus released into the apical compartment was harvested by the addition of 500 μL of culture medium. The medium was thoroughly mixed, then removed, diluted 1:1 with 40% sucrose and stored at ≤−80° C.
(§3) Concentrations of test compounds that reduced virus yield by 1 log10 (90% effective concentration; EC90) were calculated by regression analysis. The reported EC90 value is the mean of at least two experiments. Potential toxicity of the test compounds was evaluated microscopically.

[2] = test system: Respiratory syncytial virus (RSV) type A, strain A2 (ATCC VR-1540); assay: dNHBE assay: RSV virus yield reduction (EC90); type: cell-based; settings: human respiratory syncytial virus, RSV (A2) in dNHBE cells; concentration reducing virus yield by 1 log10; mean of at least two experiments
Method: as §1
Respiratory syncytial virus (RSV) type A, strain A2 (ATCC VR-1540), previously passaged in MA-104 cells to make working stock cultures, was diluted 1/10 in medium before infection, using a multiplicity of infection (MOI) of ≤0.03 CCID50 per cell.
as §2
To determine the virus titer from each treated cell culture, MA-104 cells were seeded in 96-well plates and grown overnight (37° C.) to confluence. Samples containing virus were diluted in 10-fold increments in infection medium and 200 μL of each dilution transferred into respective wells of a 96-well microtiter plate. Four microwells were used for each dilution to determine 50% viral endpoints. After 7 days of incubation, each well was scored positive for virus if any cytopathic effect was observed as compared with the uninfected control. The virus dose that was able to infect 50% of the cell cultures (CCID50 per 0.1 mL) was calculated by the Reed-Muench method. This was repeated in duplicate for each test sample, so that values reported are an average of 2 independent CCID5o determinations. Untreated, uninfected cell controls were tested as negative controls. Statistical differences in the titers were evaluated with a one-way analysis of variance (ANOVA) followed by Dunnett's multiple comparisons test compared with the untreated virus controls.
as §3

SMILES | Visual toxicity [1] | EC90 [2] [µM]
CC(C)OC(=O)[C@H](C)N[P@](=O)(OC[C@@]1(C)O[C@@H](n2cnc3c(N(C)C)nc(Cl)nc32)[C@H](F)[C@@H]1O)Oc1ccccc1 [Compound AE, (S)-Isopropyl 2-(((S)-(((2R,3R,4R,5R)-5-(6-(dimethylamino)-2-chloro-9H-purin-9-yl)-4-fluoro-3-hydroxy-2-methyltetrahydrofuran-2-yl)methoxy)(phenoxy)phosphoryl)amino) propanoate] | >16 | 9.3
CNc1nc(OC)nc2c1ncn2[C@@H]1O[C@](CCl)(CO[P@@](=O)(N[C@@H](C)C(=O)OC(C)C)Oc2ccccc2)[C@@H](O)[C@H]1F [AN, (S)-Isopropyl 2-(((S)-(((2R,3R,4R,5R)-5-(6-(methylamino)-2-methoxy-9H-purin-9-yl)-2-(chloromethyl)-4-fluoro-3-hydroxytetrahydrofuran-2-yl)methoxy)(phenoxy)phosphoryl)amino) propanoate] | >1.6 | > 1.6
CC(C)OC(=O)[C@H](C)N[P@](=O)(OC[C@@]1(C)O[C@@H](n2cnc3c(NC4CC4)nc(N)nc32)[C@H](F)[C@@H]1O)Oc1ccccc1 [AV, (S)-Isopropyl 2-(((S)-(((2R,3R,4R,5R)-5-(2-amino-6-(cyclopropylamino)-9H-purin-9-yl)-4-fluoro-3-hydroxy-2-methyltetrahydrofuran-2-yl)methoxy)(phenoxy)phosphoryl)amino) propanoate] | >1.6 | 0.099
CC(C)OC(=O)[C@H](C)N[P@](=O)(OC[C@@]1(C)O[C@@H](n2cnc3c(N(C)C)nc(N)nc32)[C@H](F)[C@@H]1O)Oc1ccccc1 [AA] | >167 | 3.5
CC(C)OC(=O)[C@H](C)N[P@](=O)(OC[C@@]1(C)O[C@@H](n2cnc3c(N(C)C4CC4)nc(N)nc32)[C@H](F)[C@@H]1O)Oc1ccccc1 [AS, (S)-Isopropyl 2-(((S)-(((2R,3R,4R,5R)-5-(2-amino-6-(cyclopropyl(methyl)amino)-9H-purin-9-yl)-4-fluoro-3-hydroxy-2-methyltetrahydrofuran-2-yl)methoxy)(phenoxy)phosphoryl)amino) propanoate] | >1.6 | 1.5
CNc1nc(Cl)nc2c1ncn2[C@@H]1O[C@](C)(CO[P@@](=O)(N[C@@H](C)C(=O)OC(C)C)Oc2ccccc2)[C@@H](O)[C@H]1F [AR, (S)-Isopropyl 2-(((S)-(((2R,3R,4R,5R)-5-(6-(methylamino)-2-chloro-9H-purin-9-yl)-4-fluoro-3-hydroxy-2-methyltetrahydrofuran-2-yl)methoxy)(phenoxy)phosphoryl)amino) propanoate] | >1.6 | 1
CC[C@]1(CO)O[C@@H](n2cnc3c(NC)nc(N)nc32)[C@H](F)[C@@H]1O [Compound Q, (2R,3R,4R,5R)-5-(2-Amino-6-(methylamino)-9H-purin-9-yl)-2-ethyl-4-fluoro-2-(hydroxymethyl)tetrahydrofuran-3-ol] | >306 | 7.3
CC(C)OC(=O)[C@H](C)N[P@](=O)(OC[C@@]1(CCl)O[C@@H](n2cnc3c(N(C)C)nc(N)nc32)[C@H](F)[C@@H]1O)Oc1ccccc1 [AG, (S)-Isopropyl 2-(((S)-(((2R,3R,4R,5R)-5-(2-amino-6-(dimethylamino)-9H-purin-9-yl)-2-(chloromethyl)-4-fluoro-3-hydroxytetrahydrofuran-2-yl)methoxy)(phenoxy)phosphoryl)amino) propanoate] | >15 | < 0.16
CNc1nc(F)nc2c1ncn2[C@@H]1O[C@](C)(CO[P@@](=O)(N[C@@H](C)C(=O)OC(C)C)Oc2ccccc2)[C@@H](O)[C@@H]1F [AP, (S)-Isopropyl 2-(((S)-(((2R,3R,4S,5R)-5-(6-(methylamino)-2-fluoro-9H-purin-9-yl)-4-fluoro-3-hydroxy-2-methyltetrahydrofuran-2-yl)methoxy)(phenoxy)phosphoryl)amino) propanoate] | >1.7 | 0.034
CNc1nc(N)nc2c1ncn2[C@@H]1O[C@@](CO)(CCl)[C@@H](O)[C@H]1F [Compound M, (2R,3R,4R,5R)-5-(2-Amino-6-(methylamino)-9H-purin-9-yl)-2-(chloromethyl)-4-fluoro-2-(hydroxymethyl)tetrahydrofuran-3-ol] | >288 | 2.9
CNc1nc(OC)nc2c1ncn2[C@@H]1O[C@](C)(CO[P@@](=O)(N[C@@H](C)C(=O)OC(C)C)Oc2ccccc2)[C@@H](O)[C@H]1F [AM, (S)-Isopropyl 2-(((S)-(((2R,3R,4R,5R)-5-(6-(methylamino)-2-methoxy-9H-purin-9-yl)-4-fluoro-3-hydroxy-2-methyltetrahydrofuran-2-yl)methoxy)(phenoxy)phosphoryl)amino) propanoate] | >1.7 | 1.1
CC(C)OC(=O)[C@H](C)N[P@](=O)(OC[C@@]1(C)O[C@@H](n2cnc3c(N(C)C)nc(F)nc32)[C@H](F)[C@@H]1O)Oc1ccccc1 [Compound AD, (S)-Isopropyl 2-(((S)-(((2R,3R,4R,5R)-5-(6-(dimethylamino)-2-fluoro-9H-purin-9-yl)-4-fluoro-3-hydroxy-2-methyltetrahydrofuran-2-yl)methoxy)(phenoxy)phosphoryl)amino) propanoate] | >16 | 8.4
COc1nc(N(C)C)c2ncn([C@@H]3O[C@](C)(CO[P@@](=O)(N[C@@H](C)C(=O)OC(C)C)Oc4ccccc4)[C@@H](O)[C@H]3F)c2n1 [AF, (S)-Isopropyl 2-(((S)-(((2R,3R,4R,5R)-5-(6-(dimethylamino)-2-methoxy-9H-purin-9-yl)-4-fluoro-3-hydroxy-2-methyltetrahydrofuran-2-yl)methoxy)(phenoxy)phosphoryl)amino) propanoate] | >16 | 0.18
CNc1nc(F)nc2c1ncn2[C@@H]1O[C@](CCl)(CO[P@@](=O)(N[C@@H](C)C(=O)OC(C)C)Oc2ccccc2)[C@@H](O)[C@H]1F [AJ, (S)-Isopropyl 2-(((S)-(((2R,3R,4R,5R)-5-(6-(methylamino)-2-fluoro-9H-purin-9-yl)-2-(chloromethyl)-4-fluoro-3-hydroxytetrahydrofuran-2-yl)methoxy)(phenoxy)phosphoryl)amino) propanoate] | >1.6 | > 1.6
CNc1nc(N)nc2c1ncn2[C@@H]1O[C@](C)(CO[P@@](=O)(N[C@@H](C)C(=O)OC(C)C)Oc2ccccc2)[C@@H](O)[C@@H]1F [AK, (S)-Isopropyl 2-(((S)-(((2R,3R,4S,5R)-5-(2-amino-6-(methylamino)-9H-purin-9-yl)-4-fluoro-3-hydroxy-2-methyltetrahydrofuran-2-yl)methoxy)(phenoxy)phosphoryl)amino) propanoate] | >1.7 | 1.1
CNc1nc(N)nc2c1ncn2[C@@H]1O[C@](CCl)(CO[P@@](=O)(N[C@@H](C)C(=O)OC(C)C)Oc2ccccc2)[C@@H](O)[C@@H]1F [AL, (S)-Isopropyl 2-(((S)-(((2R,3R,4S,5R)-5-(2-amino-6-(methylamino)-9H-purin-9-yl)-2-(chloromethyl)-4-fluoro-3-hydroxytetrahydrofuran-2-yl)methoxy)(phenoxy)phosphoryl)amino) propanoate] | >1.6 | > 1.6
CNc1nc(NC)c2ncn([C@@H]3O[C@](C)(CO[P@@](=O)(N[C@@H](C)C(=O)OC(C)C)Oc4ccccc4)[C@@H](O)[C@H]3F)c2n1 [AU, (S)-Isopropyl 2-(((S)-(((2R,3R,4R,5R)-5-(2,6-bis(methylamino)-9H-purin-9-yl)-4-fluoro-3-hydroxy-2-methyltetrahydrofuran-2-yl)methoxy)(phenoxy)phosphoryl)amino) propanoate] | >1.7 | > 1.7
CNc1nc(N)nc2c1ncn2[C@@H]1O[C@](CF)(CO[P@@](=O)(N[C@@H](C)C(=O)OC(C)C)Oc2ccccc2)[C@@H](O)[C@@H]1F [AT, (S)-Isopropyl 2-(((S)-(((2R,3R,4S,5R)-5-(2-amino-6-(methylamino)-9H-purin-9-yl)-4-fluoro-2-(fluoromethyl)-3-hydroxytetrahydrofuran-2-yl)methoxy)(phenoxy)phosphoryl)amino) propanoate] | >1.6 | 0.18
